From patent US8946268B2, “Modulators of HEC1 activity and methods therefor” (Taivex Therapeutics, Inc., priority 2010, dated 2015) come the findings set out here.

The nature of data set [1]: Pharmacokinetics in rats after i.v. injection. Type of data set: in vivo, SD rat. On the procedure: (§1) Bioavailability: Selected compounds were administered to rats per os or via injection following well known procedures.
A short description of data set [2]: Pharmacokinetics in rats after oral administration. The format is in vivo, SD rat. Conditions: for MRT inf: read-out: MRT0-inf. How it is done:
as §1

The test system of data set [3] is K562. In words: Antiproliferative activity (MTS assay), K562. Type of data set: cell-based. To be noted: Homo sapiens, K562, 96 h, K562 cells. In outline:
(§2)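 Cells were dosed in triplicate after overnight attachment and incubated 96 h at 37 °C, with DMSO controls. Viability was read by MTS absorbance. Values come from concentration-response curves by linear regression, with GI50 corrected for time-zero cell count as [1−(T−T0)/(C−T0)]×100.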

In data set [4] the test system is MDA-MB-468. In words: Antiproliferative activity (MTS assay), MDA-MB-468. Conditions: Homo sapiens, MDA-MB-468, 96 h, MDA-MB-468 cells. The format is cell-based. The method, boiled down:
as §2

The test system of data set [5] is MDA-MB-231. In words: Antiproliferative activity (MTS assay), MDA-MB-231. Type of data set: cell-based. Conditions: Homo sapiens, MDA-MB-231, 96 h, MDA-MB-231 cells. The method, boiled down: as §2
Data set [6] relates to Hela. In words: Antiproliferative activity (MTS assay), Hela. Type of data set: cell-based. To be noted: Homo sapiens, HeLa, 96 h, Hela cells. The method, boiled down: as §2
Data set [7] is described as follows: Combination of Hec1 inhibitors with chemotherapeutic inhibitors. To be noted: preliminary data.
The mark [8] stands for this setting: compound 42 i.v., SD rat, individual rats No. 1-3.
The mark [9] stands for this setting: compound 42 oral, SD rat, individual rats No. 1-3.
Setting [10] is: i.v. 2 mg/kg, SD rat, individual rats No. 1-3, 2 mg/kg.
Setting [11] is: Sprague-Dawley, rat, serum, po, 20 mg/kg, oral 20 mg/kg, 1% methyl-cellulose, SD rat, Mean.
[12] abbreviates: Sprague-Dawley, rat, serum, po, 20 mg/kg, oral 20 mg/kg, SD rat, individual rats No. 1-3.
Where [13] appears, read: oral 20 mg/kg, SD rat, individual rats No. 1-3, 20 mg/kg.
Where [14] appears, read: compound 95 i.v., SD rat, individual rats No. 1-3.
Setting [15] is: compound 95 oral, SD rat, individual rats No. 1-3.

Several values for one entry are separate records, joined by “and”; a condition that tells them apart may be missing. Equal values may be shown once. Read-outs that look alike come from different tables or passages of the source.

Consider `COc1cc(C)c(-c2csc(NC(=O)c3ccncc3)n2)c(C)c1` [Compound 42], for which the C0 in data set [1] (Sprague-Dawley, rat, serum, iv, 2 mg/kg, compound 42 i.v., SD rat, individual rats No. 1-3, read-out: C0) was 11500 ng/mL; in data set [1] (Sprague-Dawley, rat, serum, iv, 2 mg/kg, compound 42 i.v., formulation and route otherwise identical to compound 82, SD rat, Mean, read-out: C0), 11500 ng/mL; in data set [1] (setting [8]), 11344 ng/mL and 11625 ng/mL. Besides, the MRT in data set [1] (Sprague-Dawley, rat, serum, iv, 2 mg/kg, compound 42 i.v., SD rat, individual rats No. 1-3, read-out: MRT) was 1.3 h; in data set [1] (Sprague-Dawley, rat, serum, iv, 2 mg/kg, compound 42 i.v., formulation and route otherwise identical to compound 82, SD rat, Mean, read-out: MRT), 1.26 h; in data set [1] (setting [8]), 1.20 h and 1.28 h; in data set [2] (Sprague-Dawley, rat, serum, po, 20 mg/kg, compound 42 oral, SD rat, individual rats No. 1-3, read-out: MRT) it was 3.46 h; in data set [2] (Sprague-Dawley, rat, serum, po, 20 mg/kg, compound 42 oral, formulation and route otherwise identical to compound 82, SD rat, Mean, read-out: MRT) it was 3.36 h; in data set [2] (setting [9]) it was 3.78 h and 2.83 h. Also, the half-life in data set [1] (Sprague-Dawley, rat, serum, iv, 2 mg/kg, compound 42 i.v., formulation and route otherwise identical to compound 82, SD rat, Mean) is 1.52 h; in data set [2] (Sprague-Dawley, rat, serum, po, 20 mg/kg, compound 42 oral, SD rat, individual rats No. 1-3), 3.28 h; in data set [2] (Sprague-Dawley, rat, serum, po, 20 mg/kg, compound 42 oral, formulation and route otherwise identical to compound 82, SD rat, Mean) it was 3.18 h. Besides, the T1/2 in data set [1] (setting [8]) was 1.40 h and 0.99 h and 2.16 h; in data set [2] (setting [9]) it was 3.30 h and 2.97 h. The Tmax in data set [2] (Sprague-Dawley, rat, serum, po, 20 mg/kg, compound 42 oral, SD rat, individual rats No. 1-3, read-out: Tmax) turned out to be 1.5 h; in data set [2] (Sprague-Dawley, rat, serum, po, 20 mg/kg, compound 42 oral, formulation and route otherwise identical to compound 82, SD rat, Mean, read-out: Tmax), 1.33 h; in data set [2] (setting [9]), 1 h.
For the molecule `Cc1cc(OC(C)C)cc(C)c1-c1csc(NC(=O)c2ccncc2)n1` [Compound 82], the half-life in data set [1] (Sprague-Dawley, rat, serum, iv, 2 mg/kg, i.v. 2 mg/kg, 5% DMSO, 10% Cremophor, 85% WFI, SD rat, Mean) was 5.14 h; in data set [2] (setting [11]), 4.41 h; in data set [2] (setting [12]) it was 4.53 h. Moreover, the C0 in data set [1] (Sprague-Dawley, rat, serum, iv, 2 mg/kg, i.v. 2 mg/kg, 5% DMSO, 10% Cremophor, 85% WFI, SD rat, Mean, read-out: C0) was 7020 ng/mL; in data set [1] (Sprague-Dawley, rat, serum, iv, 2 mg/kg, i.v. 2 mg/kg, SD rat, individual rats No. 1-3, read-out: C0) it was 8180 ng/mL; in data set [1] (setting [10]), 5590 ng/mL and 7282 ng/mL. Further, the MRT inf in data set [1] (Sprague-Dawley, rat, serum, iv, 2 mg/kg, i.v. 2 mg/kg, 5% DMSO, 10% Cremophor, 85% WFI, SD rat, Mean, read-out: MRT0-inf) amounted to 6.46 h; in data set [2] (setting [11]) it was 7.73 h; in data set [2] (setting [12]), 7.71 h. For the same molecule, the MRT0-inf in data set [1] (setting [10]) was 8.80 h and 3.36 h and 7.22 h; in data set [2] (setting [13]), 5.76 h and 9.72 h. The T1/2 in data set [1] (setting [10]) was 6.85 h and 2.79 h and 5.78 h; in data set [2] (setting [13]), 2.94 h and 5.76 h. Also, the time of peak concentration (Tmax) in data set [2] (Sprague-Dawley, rat, serum, po, 20 mg/kg, oral 20 mg/kg, 1% methyl-cellulose, SD rat, Mean, read-out: Tmax) stood at 4 h; in data set [2] (Sprague-Dawley, rat, serum, po, 20 mg/kg, oral 20 mg/kg, SD rat, individual rats No. 1-3, read-out: Tmax) it was 4 h.
Turning to `COc1ccc(Oc2cc(C)c(-c3csc(NC(=O)c4ccncc4)n3)c(C)c2)cc1` [Compound 95], the MRT was 131 h in data set [1] (Sprague-Dawley, rat, serum, iv, 2 mg/kg, compound 95 i.v., SD rat, individual rats No. 1-3, read-out: MRT); 143 h in data set [1] (Sprague-Dawley, rat, serum, iv, 2 mg/kg, compound 95 i.v., formulation and route otherwise identical to compound 82, SD rat, Mean, read-out: MRT); 189 h and 108 h in data set [1] (setting [14]); 4.4 h in data set [2] (SD, rat, serum, po, 20 mg/kg, compound 95 oral, SD rat, individual rats No. 1-3, read-out: MRT); 4.24 h in data set [2] (SD, rat, serum, po, compound 95 oral, formulation and route otherwise identical to compound 82, SD rat, Mean, read-out: MRT); 4.38 h and 3.92 h in data set [2] (setting [15]). Besides, the half-life in data set [1] (Sprague-Dawley, rat, serum, iv, 2 mg/kg, compound 95 i.v., formulation and route otherwise identical to compound 82, SD rat, Mean) is 7.36 h; in data set [2] (SD, rat, serum, po, compound 95 oral, formulation and route otherwise identical to compound 82, SD rat, Mean), 10.9 h; in data set [2] (Sprague-Dawley, rat, serum, po, 20 mg/kg, compound 95 oral, SD rat, individual rats No. 1-3) it was 9.96 h. Further, the C0 in data set [1] (Sprague-Dawley, rat, serum, iv, 2 mg/kg, compound 95 i.v., formulation and route otherwise identical to compound 82, SD rat, Mean, read-out: C0) is 3670 ng/mL; in data set [1] (setting [14]), 2519 ng/mL and 3144 ng/mL and 5356 ng/mL. For the same molecule, the Tmax in data set [2] (SD, rat, serum, po, compound 95 oral, formulation and route otherwise identical to compound 82, SD rat, Mean, read-out: Tmax) is 3 h; in data set [2] (setting [15]), 4.00 h and 1.00 h. For the same molecule, the T1/2 in data set [2] (setting [15]) was 12.86 h and 9.75 h. The IC50 in data set [3] came to 30 nM; in data set [4], 40 nM; in data set [5] it was 30 nM; in data set [6] it was 50 nM.
Turning to `CC(=O)O[C@H]1C(=O)[C@@]2(C)[C@H]([C@H](OC(=O)c3ccccc3)[C@]3(O)C[C@H](OC(=O)[C@H](O)[C@@H](NC(=O)c4ccccc4)c4ccccc4)C(C)=C1C3(C)C)[C@]1(OC(C)=O)CO[C@@H]1C[C@@H]2O` [Taxol], the “effect in combination of Hec1 inhibitors with chemotherapeutic inhibitors” value in data set [7] is reported as “synergistic effect”.
The same measure, in the same setting: with `COc1cccc2c1C(=O)c1c(O)c3c(c(O)c1C2=O)C[C@@](O)(C(=O)CO)C[C@@H]3O[C@H]1C[C@H](N)[C@H](O)[C@H](C)O1` [doxorubicin] the entry was “at most additive effect”; with `CC[C@]1(O)C[C@@H]2CN(CCc3c([nH]c4ccccc34)[C@@](C(=O)OC)(c3cc4c(cc3OC)N(C)[C@H]3[C@@](O)(C(=O)OC)[C@H](OC(C)=O)[C@]5(CC)C=CCN6CC[C@]43[C@@H]65)C2)C1` [vinblastine], “synergistic effect”; with `CC[C@]1(O)C[C@H]2CN(CCc3c([nH]c4ccccc34)[C@@](C(=O)OC)(c3cc4c(cc3OC)N(C=O)[C@H]3[C@@](O)(C(=O)OC)[C@H](OC(C)=O)[C@]5(CC)C=CCN6CC[C@]43[C@@H]65)C2)C1` [vincristine], “synergistic effect”.
